Measurements from patent publication US6835747B1, “Ft-0554a substances and process for the preparation thereof” (The Kitasato Institute, priority 2003, dated 2004).
Entries after “also recorded” stand apart in the source; their conditions may differ.

Assays:
NADH-fumarate reductase = NADH-fumarate reductase (Ascaris suum, UniProt P24875); experiment: NADH-fumarate reductase inhibitory activity, Ascaris suum mitochondrial fraction, NADH absorption at 340 nm; assay type: biochemical
Protocol: NADH-fumarate reductase inhibitory activity of FT-0554A substance of the present invention is explained as follows.
Muscles of Ascaris suum were homogenized in 120 mM sodium phosphate solution (pH 7.0) and centrifuged at 3000×g for 10 minutes to collect the supernatant solution. The supernatant was further centrifuged at 10000×g for 20 minutes to collect the precipitate. The precipitate was suspended in 120 mM sodium phosphate solution (pH 7.0) to obtain mitochondorial fraction.
After 10 μl of test sample dissolved in 50% dimethyl sulfoxide solution was added into 96 wells microplate, 80 μl of 120 mM sodium phosphate solution (pH 7.0) containing 0.35 mM NADH, 7.2 mM disodium fumarate and 18 mg/ml bovine serum albumin was added thereto, and pre-incubated in the microplate reader ELX808 (Bio-Teck Industries Co.) at 37° C. for 5 minutes. Mithochondrial fraction of Ascaris suum 10 μl (protein content 0.3 mg) was added therein and incubated at 37° C. for 10 minutes. Absorption of NADH at 340 nm was measured every 15 seconds.
As a result of quantitative measurement of NADH-fumarate reductase activity shown by decrease in the slope of absorbancy at 340 nm, 50% inhibition of NADH-fumarate reductase activity were obtained at 0.4 μM of FT-0554A substance. Consequently, FT-0554A substance can be expected to use as drug for treatment or prevention of helminthiasis.

Solubility in solvent = assay type: physicochemical

Row | Structure (SMILES) | NADH-fumarate reductase inhibitory activity (in words) (NADH-fumarate reductase) | Solubility in solvent (Solubility in solvent; chloroform and ethyl acetate) | Solubility in solvent (Solubility in solvent; water and n-hexane)
1 | CCC(C)/C=C/C=C(\C)CC(C)/C=C/C=C/C(O)C1(C)C=C(O)C(=O)O1 (stereo not shown) [FT-0554A substance] | equivalent level of inhibitory activity | soluble | insoluble; also recorded: hardly soluble
2 | CCC(C)/C=C/C=C(\C)CC(C)/C=C/C=C/C1OC(=O)C(O)C2OC12C (stereo not shown) [FT-0554 substance, reference compound] | had NADH-fumarate reductase inhibitory activity | – | –
